# Columns and labels:
# ryegrass, Italian = experiment: Test C postemergence; assay type: in vivo, Lolium multiflorum
# Outline: (§1)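 Seeds were planted in loam soil plus sand and sprayed preemergence. In parallel, potted plants in a peat-based medium were sprayed postemergence at 2 to 18 cm (1- to 4-leaf stage). Compounds were formulated in non-phytotoxic solvent with surfactant.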
# foxtail, giant [1] = experiment: Test C postemergence; assay type: in vivo, Setaria faberii
# Outline: as §1
# oilseed rape = experiment: Test C postemergence; assay type: in vivo, Brassica napus
# Outline: as §1
# oat, wild = experiment: Test C postemergence; assay type: in vivo, Avena fatua
# Outline: as §1
# barnyardgrass [2] = experiment: Test B flooded paddy test; assay type: in vivo, Echinochloa crus-galli; conditions: 250 g ai/ha, applied to paddy water at 2-leaf stage, visual rating after 13 to 15 d, scale 0 (no effect) to 100 (complete control)
# Outline: (§2)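 Pots were flooded to 3 cm above the soil at treatment, and compounds were applied directly into the paddy water. That depth was held throughout. After 13 to 15 d in a greenhouse, plants were rated visually against untreated controls.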
# pigweed [3] = experiment: Test A preemergence; assay type: in vivo, Amaranthus retroflexus; conditions: 0 to 100 scale (0 no effect, 100 complete control)
# Outline: (§3)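 Loam/sand soil mix; compound in non-phytotoxic solvent + surfactant. Pre: directed soil spray right after planting seed. Post: potted plants 2–10 cm, 1–2 leaf stage, sprayed with same formulation.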
# galium = experiment: Test C postemergence; assay type: in vivo, Galium aparine
# Outline: as §1
# soybean = experiment: Test C postemergence; assay type: in vivo, Glycine max
# Outline: as §1
# pigweed [4] = experiment: Test A postemergence; assay type: in vivo, Amaranthus retroflexus; conditions: 0 to 100 scale (0 no effect, 100 complete control), approx. 10 d
# Outline: as §3
# wheat = experiment: Test A postemergence; assay type: in vivo, Triticum aestivum; conditions: 0 to 100 scale (0 no effect, 100 complete control), approx. 10 d
# Outline: as §3
# lambsquarters = experiment: Test C postemergence; assay type: in vivo, Chenopodium album
# Outline: as §1
# chickweed = experiment: Test C postemergence; assay type: in vivo, Stellaria media
# Outline: as §1
# blackgrass = experiment: Test C postemergence; assay type: in vivo, Alopecurus myosuroides
# Outline: as §1
# foxtail, giant [5] = experiment: Test A postemergence; assay type: in vivo, Setaria faberii; conditions: 0 to 100 scale (0 no effect, 100 complete control), approx. 10 d
# Outline: as §3
# barnyardgrass [6] = experiment: Test C postemergence; assay type: in vivo, Echinochloa crus-galli
# Outline: as §1
# sedge, umbrella = experiment: Test B flooded paddy test; assay type: in vivo, Cyperus difformis; conditions: 250 g ai/ha, applied to paddy water at 2-leaf stage, visual rating after 13 to 15 d, scale 0 (no effect) to 100 (complete control)
# Outline: as §2
# wheat (winter wheat) = experiment: Test C postemergence; assay type: in vivo, Triticum aestivum
# Outline: as §1
# nutsedge, yellow = experiment: Test C postemergence; assay type: in vivo, Cyperus esculentus
# Outline: as §1
# corn = experiment: Test C postemergence; assay type: in vivo, Zea mays
# Outline: as §1
# waterhemp = experiment: Test C postemergence; assay type: in vivo, Amaranthus rudis
# Outline: as §1
compound,measurement,setting,value
COc1nc(-c2ccc(Cl)cc2)nn1Cc1ccnc(C(F)(F)F)c1 [Compound 28],Plant response rating (scale of 0 to 100 where 0 is no effect and 100 is complete control),"ryegrass, Italian; 31 g ai/ha",5
same,Plant response rating (scale of 0 to 100 where 0 is no effect and 100 is complete control),"ryegrass, Italian; 62 g ai/ha",5
same,Plant response rating (scale of 0 to 100 where 0 is no effect and 100 is complete control),"ryegrass, Italian; 125 g ai/ha",10
same,Plant response rating (scale of 0 to 100 where 0 is no effect and 100 is complete control),"ryegrass, Italian; 250 g ai/ha",15
same,Plant response rating (scale of 0 to 100 where 0 is no effect and 100 is complete control),"foxtail, giant [1]; 31 g ai/ha",15
same,Plant response rating (scale of 0 to 100 where 0 is no effect and 100 is complete control),"foxtail, giant [1]; 62 g ai/ha",10
same,Plant response rating (scale of 0 to 100 where 0 is no effect and 100 is complete control),"foxtail, giant [1]; 125 g ai/ha",10
same,Plant response rating (scale of 0 to 100 where 0 is no effect and 100 is complete control),"foxtail, giant [1]; 250 g ai/ha",10
same,Plant response rating (scale of 0 to 100 where 0 is no effect and 100 is complete control),"oilseed rape; Oilsee Rape, 250 g ai/ha",95
same,Plant response rating (scale of 0 to 100 where 0 is no effect and 100 is complete control),"oilseed rape; Oilseed Rape, 31 g ai/ha",25
same,Plant response rating (scale of 0 to 100 where 0 is no effect and 100 is complete control),"oilseed rape; Oilseed Rape, 62 g ai/ha",55
same,Plant response rating (scale of 0 to 100 where 0 is no effect and 100 is complete control),"oilseed rape; Oilseed Rape, 125 g ai/ha",70
same,Plant response rating (scale of 0 to 100 where 0 is no effect and 100 is complete control),"oat, wild; 31 g ai/ha",5
same,Plant response rating (scale of 0 to 100 where 0 is no effect and 100 is complete control),"oat, wild; 62 g ai/ha",5
same,Plant response rating (scale of 0 to 100 where 0 is no effect and 100 is complete control),"oat, wild; 125 g ai/ha",10
same,Plant response rating (scale of 0 to 100 where 0 is no effect and 100 is complete control),"oat, wild; 250 g ai/ha",15
same,"Plant response rating, Barnyardgrass, Flood",barnyardgrass [2],20
same,"Plant response rating, Pigweed",pigweed [3]; 125 g ai/ha,100
same,"Plant response rating, Pigweed","pigweed [3]; 500 g ai/ha, approx. 10 d",100
same,Plant response rating (scale of 0 to 100 where 0 is no effect and 100 is complete control),galium; 31 g ai/ha,85
same,Plant response rating (scale of 0 to 100 where 0 is no effect and 100 is complete control),galium; 62 g ai/ha,90
same,Plant response rating (scale of 0 to 100 where 0 is no effect and 100 is complete control),galium; 125 g ai/ha,90
same,Plant response rating (scale of 0 to 100 where 0 is no effect and 100 is complete control),galium; 250 g ai/ha,95
same,Plant response rating (scale of 0 to 100 where 0 is no effect and 100 is complete control),soybean; 31 g ai/ha,45
same,Plant response rating (scale of 0 to 100 where 0 is no effect and 100 is complete control),soybean; 62 g ai/ha,70
same,Plant response rating (scale of 0 to 100 where 0 is no effect and 100 is complete control),soybean; 125 g ai/ha,55
same,Plant response rating (scale of 0 to 100 where 0 is no effect and 100 is complete control),soybean; 250 g ai/ha,60
same,"Plant response rating, Pigweed",pigweed [4]; 125 g ai/ha,100
same,"Plant response rating, Pigweed",pigweed [4]; 500 g ai/ha,100
same,"Plant response rating, Wheat",wheat; 125 g ai/ha,0
same,"Plant response rating, Wheat",wheat; 500 g ai/ha,10
same,Plant response rating (scale of 0 to 100 where 0 is no effect and 100 is complete control),lambsquarters; 31 g ai/ha,100
same,Plant response rating (scale of 0 to 100 where 0 is no effect and 100 is complete control),lambsquarters; 62 g ai/ha,80
same,Plant response rating (scale of 0 to 100 where 0 is no effect and 100 is complete control),lambsquarters; 125 g ai/ha,98
same,Plant response rating (scale of 0 to 100 where 0 is no effect and 100 is complete control),lambsquarters; 250 g ai/ha,98
same,Plant response rating (scale of 0 to 100 where 0 is no effect and 100 is complete control),chickweed; 31 g ai/ha,80
same,Plant response rating (scale of 0 to 100 where 0 is no effect and 100 is complete control),chickweed; 62 g ai/ha,95
same,Plant response rating (scale of 0 to 100 where 0 is no effect and 100 is complete control),chickweed; 125 g ai/ha,90
same,Plant response rating (scale of 0 to 100 where 0 is no effect and 100 is complete control),chickweed; 250 g ai/ha,90
same,Plant response rating (scale of 0 to 100 where 0 is no effect and 100 is complete control),blackgrass; 31 g ai/ha,10
same,Plant response rating (scale of 0 to 100 where 0 is no effect and 100 is complete control),blackgrass; 62 g ai/ha,15
same,Plant response rating (scale of 0 to 100 where 0 is no effect and 100 is complete control),blackgrass; 125 g ai/ha,15
same,Plant response rating (scale of 0 to 100 where 0 is no effect and 100 is complete control),blackgrass; 250 g ai/ha,25
same,"Plant response rating, Foxtail, Giant","foxtail, giant [5]; 125 g ai/ha",70
same,"Plant response rating, Foxtail, Giant","foxtail, giant [5]; 500 g ai/ha",90
same,Plant response rating (scale of 0 to 100 where 0 is no effect and 100 is complete control),barnyardgrass [6]; 31 g ai/ha,15
same,Plant response rating (scale of 0 to 100 where 0 is no effect and 100 is complete control),barnyardgrass [6]; 62 g ai/ha,15
same,Plant response rating (scale of 0 to 100 where 0 is no effect and 100 is complete control),barnyardgrass [6]; 125 g ai/ha,15
same,Plant response rating (scale of 0 to 100 where 0 is no effect and 100 is complete control),barnyardgrass [6]; 250 g ai/ha,25
same,"Plant response rating, Sedge, Umbrella, Flood","sedge, umbrella",100
same,Plant response rating (scale of 0 to 100 where 0 is no effect and 100 is complete control),wheat (winter wheat); 31 g ai/ha,0
same,Plant response rating (scale of 0 to 100 where 0 is no effect and 100 is complete control),wheat (winter wheat); 62 g ai/ha,5
same,Plant response rating (scale of 0 to 100 where 0 is no effect and 100 is complete control),wheat (winter wheat); 125 g ai/ha,5
same,Plant response rating (scale of 0 to 100 where 0 is no effect and 100 is complete control),wheat (winter wheat); 250 g ai/ha,10
same,Plant response rating (scale of 0 to 100 where 0 is no effect and 100 is complete control),"nutsedge, yellow; 31 g ai/ha",5
same,Plant response rating (scale of 0 to 100 where 0 is no effect and 100 is complete control),"nutsedge, yellow; 62 g ai/ha",5
same,Plant response rating (scale of 0 to 100 where 0 is no effect and 100 is complete control),"nutsedge, yellow; 125 g ai/ha",15
same,Plant response rating (scale of 0 to 100 where 0 is no effect and 100 is complete control),"nutsedge, yellow; 250 g ai/ha",10
same,Plant response rating (scale of 0 to 100 where 0 is no effect and 100 is complete control),corn; 31 g ai/ha,5
same,Plant response rating (scale of 0 to 100 where 0 is no effect and 100 is complete control),corn; 62 g ai/ha,10
same,Plant response rating (scale of 0 to 100 where 0 is no effect and 100 is complete control),corn; 125 g ai/ha,15
same,Plant response rating (scale of 0 to 100 where 0 is no effect and 100 is complete control),corn; 250 g ai/ha,15
same,Plant response rating (scale of 0 to 100 where 0 is no effect and 100 is complete control),waterhemp; 31 g ai/ha,98
same,Plant response rating (scale of 0 to 100 where 0 is no effect and 100 is complete control),waterhemp; 62 g ai/ha,95
same,Plant response rating (scale of 0 to 100 where 0 is no effect and 100 is complete control),waterhemp; 125 g ai/ha,95
same,Plant response rating (scale of 0 to 100 where 0 is no effect and 100 is complete control),waterhemp; 250 g ai/ha,98
